# Experimental data published in publication PMC8282797, “Strictly regulated agonist-dependent activation of AMPA-R is the key characteristic of TAK-653 for robust synaptic responses and cognitive improvement” (Scientific Reports, 2021).
# Entries after “also recorded” stand apart in the source; their conditions may differ. Read-outs that look alike come from different tables or passages of the source.
# What was measured:
# AMPA-R = assay: Whole-cell patch clamp recording in acute PFC slices (AMPA-R-mediated EPSPs); assay type: cell-based, rat; design: key to Synaptic EPSP response: -: No effect or slight effect; +: Potent; ++: Very potent; conditions: for Synaptic EPSP response: summary grade; for Spike number and EPSP duration after switch from LY451646 (30 μM): 10 μM
# Experimental: Coronal PFC slices were prepared from male Sprague–Dawley rats (10- to 14-day-old). The slices including layer V PFC pyramidal neurons were perfused at a flow rate of 1–2 ml/min with recording aCSF containing the following: 124 mM NaCl, 5 mM KCl, 1.2 mM NaH2PO4, 1.5 mM MgCl2, 2.5 mM CaCl2, 10 mM glucose, 24 mM NaHCO3 bubbled with carbogen (95% O2; 5% CO2). Current clamp recordings at holding potential of approximately − 65 mV with constant current were carried out at 32–33 °C using a pipette filled with an intracellular solution consisting of: 140 mM K-gluconate, 4 mM KCl, 10 mM HEPES, 0.2 mM EGTA, 4 mM MgATP, 0.3 mM Na2GTP, pH 7.3 with KOH in the presence of bicuculline (20 μM), CGP52422 (10 μM), and APV (50 μM) to block GABAA and B and NMDA receptors, respectively. Methods are described in the Supplementary Information.
# Coronal prefrontal cortex (PFC) slices were prepared from male Sprague-Dawley rats (10- to 14-day-old). Animals were sacrificed following acute decapitation, and their brain was quickly removed and placed in an ice-cold modified artificial cerebrospinal fluid (aCSF) of the following composition: 92 mM N-methyl-D-glucamine (NMDG), 2.5 mM KCl, 1.25 mM NaH2PO4, 30 mM NaHCO3, 20 mM HEPES, 25 mM glucose, 2 mM thiourea, 5 mM Na-ascorbate, 3 mM Na-pyruvate, 0.5 mM CaCl2, and 10 mM MgSO4. The pH of the solution was titrated to 7.3-7.4 with concentrated HCl. Coronal slices were cut at a thickness of 300 μm with using a linear slicer PRO7 (Dosaka EM, Kyoto, Japan). Slices were initially recovered for ≤ 15 min at 34°C and then transferred to a holding chamber containing HEPES holding aCSF (92 mM NaCl, 2.5 mM KCl, 1.25 mM NaH2PO4, 30 mM NaHCO3, 20 mM HEPES, 25 mM glucose, 2 mM thiourea, 5 mM Na-ascorbate, 3 mM Na-pyruvate, 2 mM CaCl2 and 2 mM MgSO4) at room temperature for at least 1 h before starting the recording. The slices were then transferred to the recording chamber mounted on a FN1 microscope (Nikon, Tokyo, Japan), in which they were submerged and perfused at a flow rate of 1-2 ml/min with recording aCSF containing the following: 124 mM NaCl, 5 mM KCl, 1.2 mM NaH2PO4, 1.5 mM MgCl2, 2.5 mM CaCl2, 10 mM glucose, 24 mM NaHCO3. All aCSF solutions were continuously bubbled with carbogen (95% O2; 5% CO2). Differential interference contrast (DIC) microscopy (C10639, Hamamatsu, Japan) was used to visualize pyramidal neurons in the PFC. Patch pipettes (5-6 MΩ) were prepared from borosilicate capillary glass using a micropipette puller PC-10 (NARISHIGE, Tokyo, Japan). Current clamp recordings were carried out at 32-33°C using a pipette filled with intracellular solution consisting of: 140 mM K-gluconate, 4 mM KCl, 10 mM HEPES, 0.2 mM EGTA, 4 mM MgATP, 0.3 mM Na2GTP, pH 7.3 with KOH in the presence of bicuculline (20 μM), CGP52422 (10 μM), and APV (50 μM) to block GABAA and B and NMDA receptors, respectively. Signals were recorded using a Multiclamp 700B amplifier (Molecular Devices, LLC, Orleans Drive Sunnyvale, CA), digitized using a Digidata 1440A interface board, filtered between 2 kHz, sampled at 10 kHz, and analyzed with pClamp10 software. Layer V PFC pyramidal neurons were recorded at holding potential of approximately –65 mV with constant current. A hyperpolarizing step (–20 pA) prior to each stimulation was used to monitor any changes in access resistance. Postsynaptic potentials were evoked by constant current single stimulation pulses (100 μs, 10-100 μA) delivered with a 20-s interstimulus interval using monopolar stimulating electrodes positioned in layer I.
# lipoxygenase 5-LO = molecular target: T1, lipoxygenase 5-LO (Homo sapiens, UniProt P09917); assay: Lipoxygenase 5-LO enzyme activity; assay type: biochemical
# T1 construct: Ricerca, Taipei, Taiwan
# T1 sequence (P09917 1-674): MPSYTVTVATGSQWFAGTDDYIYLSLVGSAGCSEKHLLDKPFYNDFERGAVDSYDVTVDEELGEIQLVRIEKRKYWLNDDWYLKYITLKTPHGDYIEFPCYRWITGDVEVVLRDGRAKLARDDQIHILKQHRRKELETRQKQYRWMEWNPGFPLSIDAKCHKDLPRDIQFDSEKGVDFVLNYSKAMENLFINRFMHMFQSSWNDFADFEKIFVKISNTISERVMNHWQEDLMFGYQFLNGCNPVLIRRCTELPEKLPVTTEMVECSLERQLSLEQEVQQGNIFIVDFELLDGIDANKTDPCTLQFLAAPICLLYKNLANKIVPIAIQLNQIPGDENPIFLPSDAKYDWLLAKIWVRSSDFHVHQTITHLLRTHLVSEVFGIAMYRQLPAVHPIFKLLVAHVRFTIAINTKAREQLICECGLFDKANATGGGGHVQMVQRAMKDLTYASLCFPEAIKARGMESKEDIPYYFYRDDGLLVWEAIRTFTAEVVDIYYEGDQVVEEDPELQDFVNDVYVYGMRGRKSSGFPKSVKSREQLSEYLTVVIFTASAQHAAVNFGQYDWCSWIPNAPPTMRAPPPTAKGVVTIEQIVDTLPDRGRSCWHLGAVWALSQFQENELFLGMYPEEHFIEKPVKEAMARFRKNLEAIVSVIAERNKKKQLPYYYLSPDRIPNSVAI
SMILES,Membrane potentials of recorded neurons (AMPA-R; 0.3 μM),"Polysynaptic EPSP duration and evoked spike number (AMPA-R; 0.3 μM, 5 min, membrane held at −65 mV)",Synaptic EPSP response (AMPA-R),IC50 (lipoxygenase 5-LO) [µM],Membrane potentials of recorded neurons (AMPA-R),Spike number and EPSP duration after switch from LY451646 (30 μM) (AMPA-R),Suprathreshold response (AMPA-R; 10 μM for 10 min),Spike number and EPSP duration after switch from LY451646 (30 μM) (AMPA-R; listed as TAK653),"Suprathreshold polysynaptic EPSPs (evoked spikes, EPSP duration) (AMPA-R; 0.3 to 30 μM, 10 min bath application)"
"Cc1onc(O)c1CC(N)C(=O)O (stereo not drawn) [AMPA, alpha-amino-3-hydroxy-5-methyl-4-isoxazole-propionic acid]",increased,reduced; also recorded: diminished the suprathreshold response,─,–,–,–,–,–,–
"CC1=CN2CCS(=O)(=O)N=C2C(c2ccc(OC3CCCCC3)cc2)=N1 [TAK-653, 9-[4-(Cyclohexyloxy)phenyl]-7-methyl-3,4-dihydropyrazino[2,1-c][1,2,4]thiadiazine 2,2-dioxide]",–,–,++,5.9,did not increase,a clear increase,enhanced the suprathreshold response,further augmentation of spike number,enhanced
